Measured values: PubChem BioAssay (NCI)
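Growth conditions: 96-well plates. Treatment: test compound, 48 hours, 5 concentrations. Analysis: linear interpolation between bracketing concentrations; unreached endpoints set to highest concentration. Definition used: TGI = concentration required for complete inhibition of growth.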

Key:
Experiment in all cases: NCI tumour cell line growth inhibition, 48 h
DMS 273 small cell lung = system: DMS 273 small cell lung
DLD-1 colon = system: DLD-1 colon
DMS 114 small cell lung = system: DMS 114 small cell lung
KM20L2 colon = system: KM20L2 colon
XF 498 CNS = system: XF 498 CNS
HOP-18 NSCLC = system: HOP-18 NSCLC
RXF-631 renal = system: RXF-631 renal
P388 leukemia = system: P388 leukemia
SN12K1 renal = system: SN12K1 renal
P388/ADR leukemia = system: P388/ADR leukemia

`CCOC(=O)C1C=C2O[C@@H]3OC4(CCCCC4)O[C@@H]3C2[C@H]2C(=O)C=CC(=O)[C@@]12C(=O)OC` (stereo not given in full) was tested, and the TGI (DMS 273 small cell lung) was 22.9 µM, the TGI (DLD-1 colon) was 35.1 µM and the TGI (DMS 114 small cell lung) was 9.68 µM. For the same compound, the TGI (KM20L2 colon) was 30.6 µM, the TGI (XF 498 CNS) was 12.8 µM and the TGI (HOP-18 NSCLC) was 32.4 µM. For the same compound, the TGI (RXF-631 renal) was 51.8 µM.

`CNC(=O)OCc1nc(SC(C)C)n(C)c1COC(=O)NC` showed a TGI (P388 leukemia) of over 100 µM, a TGI (DMS 273 small cell lung) of over 100 µM and a TGI (DLD-1 colon) of over 100 µM. It also gave a TGI (DMS 114 small cell lung) of over 100 µM, a TGI (KM20L2 colon) of over 100 µM and a TGI (SN12K1 renal) of over 100 µM. The TGI (P388/ADR leukemia) was over 100 µM and the TGI (HOP-18 NSCLC) was over 100 µM.
